These results are taken from ChEMBL document CHEMBL2429820, “Synthesis and anticonvulsant activity evaluation of 7-alkoxy-2,4-dihydro-1H-benzo[b][1,2,4]triazolo[4,3-d][1,4]thiazin-1-ones in various murine experimental seizure models” (Med Chem Res, 2013).

Each structure is given as a SMILES string. The source made the active and inactive calls. The rule behind the calls is not given here.

The term ED50 denotes the dose that gives a 50% effect, or the effect in half of the subjects. What is called TD50 is the dose at which the toxic effect under study appears in half of the subjects.

The subject of data set [1] is Mus musculus. The data set is described as follows: Anticonvulsant activity in KunMing mouse assessed as protection against maximal electroshock-induced seizure at 7.5 mg/kg, ip after 0.5 hrs. Type of data set: functional, organism-based. Further details: dose 7.5 mg/kg. (In general: In the maximal electroshock model the usual endpoint is tonic extension of the hind limbs.)

Data set [2] has as its system Mus musculus. Kind of data set: Anticonvulsant activity in KunMing mouse assessed as protection against maximal electroshock-induced seizure at 100 mg/kg, ip after 0.5 hrs. The arrangement: dose 100 mg/kg. Type of data set: functional, organism-based.
Data set [3] relates to Mus musculus. The data set is described as follows: Anticonvulsant activity in KunMing mouse assessed as protection against maximal electroshock-induced seizure at 15 mg/kg, ip after 0.5 hrs. Type of data set: functional, organism-based. Further details: dose 15 mg/kg.
The test system of data set [4] is Mus musculus. Kind of data set: Anticonvulsant activity against bicuculline-induced seizure in KunMing mouse assessed as lethality at 30 mg/kg, ip administered 30 mins before bicuculline challenge measured after 30 mins. The format is functional. The settings on record: route intraperitoneal.
Data set [5] relates to Mus musculus. The data set is described as follows: Anticonvulsant activity against bicuculline-induced seizure in KunMing mouse assessed as tonic seizure level at 30 mg/kg, ip administered 30 mins before bicuculline challenge measured after 30 mins. Type of data set: functional. The settings on record: route intraperitoneal.
Data set [6] relates to Mus musculus. The data set is described as follows: Anticonvulsant activity against bicuculline-induced seizure in KunMing mouse assessed as clonic seizure level at 30 mg/kg, ip administered 30 mins before bicuculline challenge measured after 30 mins. The format is functional. To be noted: route intraperitoneal.
For data set [7], the system named is Mus musculus. The data set is described as follows: Anticonvulsant activity against 3-mercaptopropionic acid-induced seizure in KunMing mouse assessed as tonic seizure level at 30 mg/kg, ip administered 30 mins before 3-mercaptopropionic acid challenge measured after 30 mins. The format is functional. The settings on record: route intraperitoneal.
In data set [8] the test system is Mus musculus. Kind of data set: Anticonvulsant activity against 3-mercaptopropionic acid-induced seizure in KunMing mouse assessed as clonic seizure level at 30 mg/kg, ip administered 30 mins before 3-mercaptopropionic acid challenge measured after 30 mins. Type of data set: functional. The settings on record: route intraperitoneal.
Data set [9] relates to Mus musculus. Kind of data set: Anticonvulsant activity against pentylenetetrazole-induced seizure in KunMing mouse assessed as lethality at 30 mg/kg, ip administered 30 mins before pentylenetetrazole challenge measured after 30 mins. The format is functional. To be noted: route intraperitoneal.
The test system of data set [10] is Mus musculus. The data set is described as follows: Anticonvulsant activity against pentylenetetrazole-induced seizure in KunMing mouse assessed as tonic seizure level at 30 mg/kg, ip administered 30 mins before pentylenetetrazole challenge measured after 30 mins. The format is functional. To be noted: route intraperitoneal.
For data set [11], the system named is Mus musculus. The data set is described as follows: Anticonvulsant activity against pentylenetetrazole-induced seizure in KunMing mouse assessed as clonic seizure level at 30 mg/kg, ip administered 30 mins before pentylenetetrazole challenge measured after 30 mins. The format is functional. To be noted: route intraperitoneal.
Data set [12] concerns Mus musculus. Kind of data set: Protective index, ratio of TD50 for ip dosed KunMing mouse to ED50 for ip dosed KunMing mouse. The format is functional.
In data set [13] the test system is Mus musculus. Kind of data set: Anticonvulsant activity in ip dosed KunMing mouse assessed as protection against maximal electroshock-induced seizure after 0.5 hrs. The format is functional.
Data set [14] in a line: Neurotoxicity in ip dosed KunMing mouse assessed as inability of animal to maintain equilibrium on rod for at least 1 min. Type of data set: toxicity, organism-based. The settings on record: in vivo.
Data set [15] deals with Mus musculus. The data set is described as follows: Anticonvulsant activity in KunMing mouse assessed as protection against maximal electroshock-induced seizure at 30 mg/kg, ip after 0.5 hrs. The format is functional, organism-based. The arrangement: dose 30 mg/kg.
The subject of data set [16] is Mus musculus. The data set is described as follows: Anticonvulsant activity against 3-mercaptopropionic acid-induced seizure in KunMing mouse assessed as lethality at 30 mg/kg, ip administered 30 mins before 3-mercaptopropionic acid challenge measured after 30 mins. Type of data set: functional. The settings on record: route intraperitoneal.

With `O=c1[nH]nc2n1-c1ccc(OCc3cccc(F)c3)cc1SC2`, the result in the data set on Mus musculus [1] was inactive. In addition, in the data set on Mus musculus [2], the outcome was Active.

With `O=c1[nH]nc2n1-c1ccc(OCc3ccc(Cl)cc3)cc1SC2`, in the data set on Mus musculus [3], the result was inactive.

For `O=c1[nH]nc2n1-c1ccc(OCc3ccccc3Cl)cc1SC2`, the outcome in the data set on Mus musculus [2] was inactive.

For the compound `NC(=O)N1c2ccccc2C=Cc2ccccc21` [CARBAMAZEPINE], the Activity in the data set with Mus musculus [4] was 60%; in the data set on Mus musculus [5], 0%; in the data set with Mus musculus [6], 100%; with Mus musculus [7], 0%; in the data set with Mus musculus [8] it was 100%; with Mus musculus [9], 10%. Besides, the Activity came out at 0% in the data set on Mus musculus [10] and 100% in the data set on Mus musculus [11]. For the same compound, the PI with Mus musculus [12] stood at 6.4. Also, the 50% effective dose (ED50) in the data set on Mus musculus [13] was 11.8 mg/kg.

As for `CCCOc1ccc2c(c1)SCc1n[nH]c(=O)n1-2`, the PI in the data set on Mus musculus [12] worked out at 7. The TD50 at 1 min in data set [14] amounted to 84.9 mg/kg. Moreover, the ED50 in the data set on Mus musculus [13] turned out to be 12.2 mg/kg. Further, the result in the data set with Mus musculus [15] and in the data set on Mus musculus [2] was Active.

For the compound `O=c1[nH]nc2n1-c1ccc(OCc3ccc(F)cc3)cc1SC2`, the Activity with Mus musculus [4] was 30%; in the data set on Mus musculus [5], 10%; in the data set with Mus musculus [6] it was 90%; in the data set on Mus musculus [16], 60%; in the data set on Mus musculus [7] it was 0%; in the data set with Mus musculus [8], 100%. Moreover, the Activity in the data set on Mus musculus [9] amounted to 80%; in the data set on Mus musculus [10], 10%; in the data set on Mus musculus [11], 100%. Moreover, the PI in the data set on Mus musculus [12] is recorded as 15.4. For the same compound, the TD50 at 1 min in data set [14] amounted to 141 mg/kg. In addition, the ED50 in the data set on Mus musculus [13] turned out to be 9.2 mg/kg. Further, the result with Mus musculus [15] and with Mus musculus [2] was Active.

Turning to `Cc1ccc(COc2ccc3c(c2)SCc2n[nH]c(=O)n2-3)cc1`, in the data set with Mus musculus [1], the result was inactive. In addition, the result in the data set with Mus musculus [15] and with Mus musculus [2] was Active.

For `CCCCCCCOc1ccc2c(c1)SCc1n[nH]c(=O)n1-2`, in the data set on Mus musculus [1], the result was inactive.

`CCCCCCOc1ccc2c(c1)CCC(=O)N2`: the PI with Mus musculus [12] came to 2.4. Further, in the data set with Mus musculus [13], the ED50 came to 24 mg/kg.

For `CCCCCCCCCCCCCCOc1ccc2c(c1)SCc1n[nH]c(=O)n1-2`, the outcome with Mus musculus [2] was inactive.

Consider `CCCCCOc1ccc2c(c1)SCC(=O)N2`, for which, in the data set with Mus musculus [12], the PI amounted to 8.9. The TD50 at 1 min in data set [14] came out at 306 mg/kg. The ED50 in the data set on Mus musculus [13] was 34.1 mg/kg.

As for `CCCCCCCCOc1ccc2c(c1)SCc1n[nH]c(=O)n1-2`, the result in the data set with Mus musculus [2] was inactive.

For `O=c1[nH]nc2n1-c1ccc(OCc3cccc(C(F)(F)F)c3)cc1SC2`, in the data set with Mus musculus [15], the outcome was inactive.

Take `CCOc1ccc2c(c1)SCc1n[nH]c(=O)n1-2`: the outcome in the data set on Mus musculus [15] was inactive. Also, in the data set on Mus musculus [2], the outcome was Active.

As for `O=c1[nH]nc2n1-c1ccc(OCc3cccc(Cl)c3)cc1SC2`, in the data set on Mus musculus [3], the result was inactive. The outcome in the data set on Mus musculus [2] was Active.

Regarding `O=c1[nH]nc2n1-c1ccc(OCc3ccccc3)cc1SC2`, the PI with Mus musculus [12] is listed as 7.8. The TD50 at 1 min in data set [14] is 94.7 mg/kg. In the data set on Mus musculus [13], the ED50 was determined as 12.2 mg/kg. Moreover, the result with Mus musculus [2] was Active.

Regarding `CCCCCOc1ccc2c(c1)SCc1n[nH]c(=O)n1-2`, the PI with Mus musculus [12] amounted to 11.5. In [14], the TD50 at 1 min was found to be 81.8 mg/kg. Moreover, in the data set with Mus musculus [13], the ED50 was found to be 7.1 mg/kg. Besides, the result with Mus musculus [3], in the data set with Mus musculus [15] and with Mus musculus [2] was Active.

As to `O=c1[nH]nc2n1-c1ccc(OCc3ccccc3F)cc1SC2`, the outcome with Mus musculus [1] was inactive. Further, the result in the data set on Mus musculus [2] was Active.

In the case of `CCCCCCCCCCCCOc1ccc2c(c1)SCc1n[nH]c(=O)n1-2`, in the data set on Mus musculus [2], the outcome was inactive.

`N#Cc1ccccc1COc1ccc2c(c1)SCc1n[nH]c(=O)n1-2`: the result in the data set on Mus musculus [2] was inactive.

On to `CCCCOc1ccc2c(c1)SCc1n[nH]c(=O)n1-2`, for which the PI in the data set with Mus musculus [12] is recorded as 14.9. Besides, in data set [14], the TD50 at 1 min came to 118 mg/kg. Besides, the ED50 in the data set on Mus musculus [13] turned out to be 7.9 mg/kg. Also, the outcome in the data set on Mus musculus [3], with Mus musculus [15] and in the data set with Mus musculus [2] was Active.

On to `CCCCCCOc1ccc2c(c1)SCc1n[nH]c(=O)n1-2`, for which the PI in the data set on Mus musculus [12] was 11.3. Moreover, in data set [14], the TD50 at 1 min came out at 89.6 mg/kg. In the data set with Mus musculus [13], the ED50 came to 7.9 mg/kg. In addition, the outcome in the data set on Mus musculus [3], with Mus musculus [15] and in the data set on Mus musculus [2] was Active.

As to `O=c1[nH]nc2n1-c1ccc(OCc3c(Cl)cccc3Cl)cc1SC2`, in the data set with Mus musculus [3], the outcome was inactive.
